Source: ChEMBL document CHEMBL1152256, “Synthesis of Arabino glycosyl triazoles as potential inhibitors of mycobacterial cell wall biosynthesis” (2008)
In brackets after ≈: the same amount, converted by molar mass. Activity calls are given as the source filed them. The rule behind the calls is not given here.

Legend:
[1] = tested on: Mycobacterium tuberculosis; assay: Antimycobacterial activity against Mycobacterium bovis BCG by alamar blue assay; type: functional; conditions: variant bovis BCG
[2] = tested on: Mycobacterium tuberculosis; assay: Antimycobacterial activity against Mycobacterium bovis BCG at 1 mg/mL by alamar blue assay; type: functional, organism-based; conditions: variant bovis BCG

Row | Structure (SMILES) | MIC [1] | Activity [2]
1 | CC(C)=CCC/C(C)=C/CC/C(C)=C/COCc1cn([C@@H]2O[C@H](CO)[C@@H](O)[C@@H]2O)nn1 | 62 µg/mL (≈ 142 µM) | 
2 | CCCCCCc1cn([C@@H]2O[C@H](CO)[C@@H](O)[C@@H]2O)nn1 | 500 µg/mL (≈ 1750 µM) | 
3 | CCCCCCCCCCCCCCOCc1cn([C@@H]2O[C@H](CO)[C@@H](O)[C@@H]2O)nn1 | 31 µg/mL (≈ 72.5 µM) | 
4 | NNC(=O)c1ccncc1 [ISONIAZID] | 0.1 µg/mL (≈ 0.729 µM) | 
5 | CCCCCCCCCCc1cn([C@@H]2O[C@H](CO)[C@@H](O)[C@@H]2O)nn1 | 250 µg/mL (≈ 732 µM) | 
6 | CCCCCCCCc1cn([C@@H]2O[C@H](CO)[C@@H](O)[C@@H]2O)nn1 | 62 µg/mL (≈ 198 µM) | 
7 | OC[C@H]1O[C@@H](n2cc(-c3ccccc3)nn2)[C@@H](O)[C@@H]1O |  | inactive
